≈ marks a conversion by molar mass, not a printed value. Non-standard residues stand in square brackets, D forms with d. Residues, ends and D or L forms follow the SMILES beside them. 1Nal = N[C@@H](Cc1cccc2ccccc12)C(=O)O; Nle = CCCC[C@H](N)C(=O)O
Legend:
[1] = tested on: Methicillin sensitive Staphylococcus pseudintermedius (26916); assay type: cell-based; conditions: 18 h
[2] = tested on: Methicillin resistant Staphylococcus pseudintermedius, (C22963); assay type: cell-based; conditions: 18 h
[3] = tested on: Staphylococcus aureus (ATCC 29213); assay type: cell-based; conditions: ATCC 29213, 18 h
[4] = tested on: Pseudomonas aeruginosa (ATCC 27853); assay type: cell-based; conditions: ATCC 27853, 18 h
Procedure: To explore the antimicrobial activity of the library of peptides and peptidomimetics, they were tested against Acinetobacter baumannii, Corynebacterium auriscanis, Escherichia coli, Enterococcus faecalis, Enterococcus faecium, Klebsiella pneumonia, Proteus mirabilis, and Pseudomonas aeruginosa. Bacteria grown on agar plates for 18 h at 37 °C were diluted to ~1 × 10^8 CFU/mL in Mueller–Hinton broth (MHB). Two-fold serial dilutions of peptides and peptidomimetics in MHB II were inoculated with bacteria to achieve a final concentration of 5 × 10^5 CFU/mL in polypropylene 96 U-well microtiter plates (Almeco, Esbjerg, Denmark), followed by incubation at 37 °C in ambient air for 18 h. The MIC values were determined as the lowest concentration showing no visible bacterial growth. Experiments were performed twice (in technical triplicates) on two different days.

[5] = tested on: DNA synthesis in MRSP E104; test: Macromolecule biosynthesis assay, DNA (3H-thymidine); assay type: cell-based, Staphylococcus pseudintermedius; conditions: 0.5× MIC, 20 min incubation, MRSP E104, 3H-thymidine; means of two experiments
Procedure: (§1) The effect on DNA and cell wall synthesis was investigated after 20 min of incubation of MRSP E104 with the precursors ^3H-thymidine and ^3H-glucosamine hydrochloride, respectively, as previously reported by Ling et al.. Following macromolecule precipitation, radioactivity was counted using scintillation fluid. Incorporation of ^3H- or ^14C-labeled thymidine has been used to investigate DNA replication and transcriptional activity during the cell cycle; ^3H-glucosamine hydrochloride has been used in a mode of action study for the antimicrobial peptide plectasin, which targets the cell wall precursor lipid II [44].
(§2) Macromolecules (DNA and cell wall) biosynthesis rates were measured using strain MRSP E104 following a protocol adapted from Ling et al.. Briefly, overnight culture of E104 was diluted 1:100 in MHB and freshly grown up to OD 0.2 at 600 nm. Grown cells were pelleted down by centrifugation and then resuspended in fresh MHB medium followed by incubation for 20 min on a dry heat-bath with D2 or analogues or nisin and radiolabeled precursor: (50 µCi) ^3H-Thymidine (PerkinElmer) and (5 µCi) ^3H-glucosamine hydrochloride per mL for DNA and cell wall, respectively. A positive control without antimicrobials was maintained that corresponds to 100% synthesis rate. After 20 min of incubation, samples were precipitated with equal volume of cold 30% trichloroactic acid (TCA Sigma, Søborg, Denmark) on ice. After 15 to 30 min of incubation on ice, precipitates were filtered on a membrane filter and subsequently washed twice with cold 15% TCA and twice with cold water using a vacuum manifold. Next, filters were air dried overnight and then moved to 10 mL scintillation vials. Finally, 3 mL scintillation fluid was added to each vial and ^3H count was taken in Beckman Coulter LS6500 liquid scintillation counter for 1 min. The radioactive counts of the control samples with no antimicrobial exposure were considered to have 100% precursor incorporation and macromolecule synthesis. The percentage rates of macromolecule synthesis in the antimicrobial-exposed samples were calculated compared to control. Each experiment was performed twice with a technical replicate, and the average rates of synthesis were plotted.

[6] = tested on: cell wall synthesis in MRSP E104; test: Macromolecule biosynthesis assay, cell wall (3H-glucosamine hydrochloride); assay type: cell-based, Staphylococcus pseudintermedius; conditions: 0.5× MIC, 20 min incubation, MRSP E104, 3H-glucosamine hydrochloride; means of two experiments
Procedure: as §1, §2

[7] = tested on: membrane proton motive force of E104 cells; test: DiSC3(5) fluorescence, membrane depolarization; assay type: cell-based, Staphylococcus pseudintermedius; conditions: 0.5× MIC, n = 2
Excerpt: In this study, the DiSC3(5) probe was used to assess the effect of D2 and its structural analogues D2L, D2D, and D2R on cytoplasmic membrane depolarization. DiSC3(5) is a cationic carbocyanine dye, which accumulates on negatively charged membrane, translocates into lipid membrane with a distribution dependent on plasma and mitochondrial membrane potential. Altered emission profile of DiSC3(5) measured via fluorescence spectroscopy indicates membrane depolarization caused by proton motive force dissipation, ATP production and/or pore formation. The increment of DiSC3(5) fluorescence of labeled cells resulting from its leakage upon addition of antimicrobial agents is usually measured over time. The protonophore carbonyl cyanide metachlorophenyl hydrazone (CCCP) is used as positive control, which rapidly dissipates PMF increasing proton permeability, alters both membrane proton gradient and transmembrane electric potential and decreases cellular ATP content. Based on the MIC and growth analysis results, sub-lethal concentrations of D2 and selected analogues were chosen to perform DiSC3(5) fluorescence and macromolecule biosynthesis studies.
Freshly grown E104 cells with OD 0.2 at 600 nm were labeled with 1 µM 3,3-dipropylthiadicarbocyanine iodide [DiSC3(5)] (Sigma-Aldrich, Søborg, Denmark) in MHB. The fluorescence spectra of fluorophore-labeled cells were plotted using the LS-50B luminescence spectrometer (PerkinElmer, Waltham, MA, USA) at excitation/emission wavelengths 546 nm/573 nm using time drive application of FLWINLAB software. After reading initial stable emission spectra of DiSC3(5), labeled cells were exposed with D2 or analogues or nisin or protonophore CCCP by directly injecting the concentrated solution of agent to the cuvette, and the change of fluorescence over time was recorded until emission spectra reached to stability. The increment of DiSC3(5) fluorescence upon addition of antimicrobials or CCCP (FUafter-exposure – FUbefore-exposure) was calculated and plotted in addition to raw fluorescence spectra. Experiment was performed twice and average fluorescence change was plotted with standard deviation.

MRSP ST71 strain E104 = test: Growth curve analysis (BioScreen); assay type: cell-based, Staphylococcus pseudintermedius; conditions: at the MIC, MRSP E104, OD600, 6 h, 37 °C
Procedure: First, we performed growth curve analysis using the well-characterized MRSP ST71 strain E104, which is resistant to a number of antibiotics. […] A well-characterized antimicrobial peptide, nisin, was used as control. […] Increased concentrations of nisin inhibited proportionally the growth of E104, both at sub-MIC and MIC concentrations.
The effect of D2 or analogues or nisin on the growth of MRSP strain E104 was evaluated using BioScreen (Oy Growth Curves Ab LTd, Helsinki, Finland). Freshly grown culture of E104 was diluted to OD 0.2 at 600 nm, supplemented with increased concentration of antimicrobials and distributed in a 100 well honeycomb micro-plate with volume 100 μL. The plate was incubated for 6 h at 37 °C with continuous shaking. The OD600 of each micro-culture was measured and recorded every 15 min after a 5 s pause of shaking in automatic mode. Recorded OD was plotted against time to prepare the growth curves. Experiment was performed twice and one representative result was presented.

red blood cell (RBC) = conditions: 0.5% RBC suspension in PBS, 1 h, 37 °C, read at 414 nm, normalized to mellitin and PBS, triplicates
Procedure: Briefly, 75 µL of peptide in PBS was mixed with 75 µL of a 0.5% red blood cell (RBC) suspension in PBS, and incubated for 1 h at 37 °C. The hemoglobin release was then measured at 414 nm and normalized, using mellitin as positive control and PBS as negative control. Experiments were done in triplicates.

S. aureus = tested on: S. aureus; set-up: method as in PMID 28262682; conditions: cited from earlier work

| Compound | MIC MSSP [1] | MIC MRSP [2] | MIC SA [3] | MIC PA [4] | inhibition of DNA biosynthesis rate [5] | effect on (inhibition of) cell wall synthesis [6] | effect on PMF (membrane depolarization, DiSC3(5) fluorescence) [7] | growth curve, change of cell optical density over time (MRSP ST71 strain E104) | HA, percentage of hemolysis at 150 µM (red blood cell (RBC)) | antimicrobial activity (MIC) against S. aureus (S. aureus) |
| --- | --- | --- | --- | --- | --- | --- | --- | --- | --- | --- |
| CCCC[C@H](NC(=O)[C@H](CCCCN)NC(=O)[C@H](Cc1cccc2ccccc12)NC(=O)[C@H](CCCCN)NC(=O)[C@H](Cc1ccccc1)NC(=O)[C@H](Cc1cccc2ccccc12)NC(=O)[C@H](CCCCN)NC(=O)[C@@H](N)CCCCN)C(N)=O [D2L] (H-KK[1Nal]FK[1Nal]K[Nle]-NH2; N-terminus assumed) | 16 mg/L (≈ 13.5 µM) | 8 mg/L (≈ 6.75 µM) | 32 mg/L (≈ 27 µM) | 16 mg/L (≈ 13.5 µM) | 17% | 31% | strongest effect on PMF | cell lysis | 35% |  |
| CCCC[C@H](N)C(=O)N[C@@H](CCCCN)C(=O)N[C@@H](Cc1cccc2ccccc12)C(=O)N[C@@H](CCCCN)C(=O)N[C@@H](Cc1ccccc1)C(=O)N[C@@H](Cc1cccc2ccccc12)C(=O)N[C@@H](CCCCN)C(=O)N[C@@H](CCCCN)C(N)=O [D2R] (H-[Nle]K[1Nal]KF[1Nal]KK-NH2; N-terminus assumed) | 16 mg/L (≈ 13.5 µM) | 4 mg/L (≈ 3.38 µM) | 32 mg/L (≈ 27 µM) | 32 to 64 mg/L | < 5% | 22% | strongest effect on PMF | cell lysis | 23% |  |
| KLKLLLLLKLK-NH2 |  |  |  |  |  |  |  |  |  | 16 mg/L |
